Results taken from patent EP3748362A1, “IN VITRO METHOD FOR DETECTING RENAL DISEASE” (Fundacion Instituto De Investigacion Sanitaria Fundacion …, priority 2019, dated 2020).

Assays:
NF-κB2 [1] = experiment: Non-canonical NF-κB2 activation and NF-κB2 targets in kidneys of TWEAK-injected mice; type: in vivo
Procedure: (§1) All animal procedures were performed according to the guidelines of animal research in the European Community and with prior approval by the Ethics Committee of the Health Research of the IIS-Fundacion Jiménez Díaz. For in vivo studies, mice received a daily intraperitoneal injection of the VDRA Paricalcitol starting 48 hours prior to induction of kidney damage.
(§2) At the time of sacrifice, animals were anesthetized with 5 mg/kg xylazine (Rompun, Bayer AG) and 35 mg/kg ketamine (Ketolar, Pfizer) and the kidneys perfused in situ with cold saline before removal. Then, kidney portions were fixed in formalin buffer for immunohistochemistry studies or immediately frozen in liquid nitrogen for gene and protein studies.
TWEAK administration: C57BL/6 female mice (9-12 weeks, weight 20 g, 7-8 animals per group), received a single intraperitoneal injection of 0.5 µg TWEAK dissolved in saline and were sacrificed 24 hours later, as previously described (Sanz et al. 2008). Controls were injected with the saline vehicle (n=8-10 mice per group). TWEAK endotoxin level were <0.1 ng/mg, confirmed by MALDI-TOF. Some animals received paricalcitol 750 ng/kg/day, or the NF-κB2 inhibitor SN52, 0.7 mg/mouse/day, starting 48 hours before TWEAK administration. Animals were sacrificed 24 hours later. The dose of paricalcitol was chosen based on prior experience in mild inflammatory kidney conditions.
Paraffin-embedded kidney sections (3 µm) were stained using conventional methods. Antigen retrieval was performed by PTlink link system (Dako Diagnostics) with sodium citrate buffer (10 mmol/L) adjusted to pH 6-9 depending on the immunohistochemical marker, followed by immunohistochemical staining in a Dako Autostainer. Steps: 1) endogenous peroxidase blockade; 2) primary antibodies incubation; anti-CD3 (1:300; Dako) or anti-F4/80 (1:5000; Serotec); NF-κB p-p65 (1:200; Cell Signalling); NF-κB2 p52 (1:50; Cell Signaling); RelB (1:50; Santa Cruz Biotechnology); CCL21 (1:90; Santa Cruz Biotechnology); 3) washing; 4) DUOFLEX Doublestain EnVision™ treatment, using 3,3'-diaminobenzidine as chromogen. For F4/80 staining a rabbit anti-rat linker was used before EnVision. Sections were counterstained with Carazzi's hematoxylin. […] For each sample (processed by duplicate in a blinded manner), the average value was obtained from the analysis of 4 fields (20X objective) as density/mm2 or percentage stained area vs total analyzed area. Data are expressed as fold increase over control mice, as mean ± SEM of 8-10 animals per group. […]
(§3) For western blot, cell (25 µg/lane) and kidney (100-150 µg/lane) protein extracts were separated on 6%-12% polyacrylamide-SDS gels under reducing conditions. […] Autoradiographs were scanned using the Gel Doc™ EZ imager and analyzed with the Image Lab 3.0 software (BioRad). […]

[2] = test system: renal inflammation in experimental Unilateral Ureteral Obstruction (UUO); experiment: Renal inflammation in unilateral ureteral obstruction (UUO) in mice; type: in vivo, C57BL/6 mice; conditions: obstructed kidneys (UUO), paricalcitol 750 ng/kg/day
Procedure: as §1
At the time of sacrifice, animals were anesthetized with 5 mg/kg xylazine (Rompun, Bayer AG) and 35 mg/kg ketamine (Ketolar, Pfizer) and the kidneys perfused in situ with cold saline before removal. […]
(§4) Paraffin-embedded kidney sections (3 µm) were stained using conventional methods. […] For each sample (processed by duplicate in a blinded manner), the average value was obtained from the analysis of 4 fields (20X objective) as density/mm2 or percentage stained area vs total analyzed area. Data are expressed as fold increase over control mice, as mean ± SEM of 8-10 animals per group. […]
Total RNA was isolated from cells and mouse kidney samples with Trizol (Invitrogen). […] The mRNA copy numbers were calculated for each sample by the instrument software using Ct value. Results are expressed in copy numbers, calculated relative to unstimulated cells or control mice, after normalization against 18S.

NF-κB2 [3] = experiment: Non-canonical NF-κB2 activation and NF-κB2 targets in obstructed kidneys (UUO) in mice; type: in vivo; conditions: paricalcitol 750 ng/kg/day
Procedure: as §1, §2
Unilateral ureteral obstruction (UUO) was established in male C57BL/6 mice, under isoflurane-induced anesthesia. The left ureter was ligated with silk (5/0) at two locations and cut between ligatures to prevent urinary tract infection (obstructed kidney).(Ucero et al 2014; Rodrigues-Díez et al 2013) Two groups were studied; untreated or paricalcitol treated (750 ng/kg/day, i.p., Abbot), n=6-8 mice per group, starting 48 hours before surgery. Studies compared both kidneys (contralateral vs. obstructed) in each mouse.
as §4, §3

Structure (SMILES): C[C@H](/C=C/[C@H](C)C(C)(C)O)[C@H]1CC[C@H]2/C(=C/C=C3C[C@@H](O)C[C@H](O)C3)CCC[C@]12C [paricalcitol]
- renal CCL21A and CCL19 gene expression (NF-κB2 [1]; paricalcitol 750 ng/kg/day or SN52 0.7 mg/mouse/day, real time PCR): reduced
- TWEAK-induced NF-κB2 activation in the kidney: nuclear p52 and RelB accumulation in tubular epithelial cells (NF-κB2 [1]; paricalcitol 750 ng/kg/day, immunohistochemistry, western blot): reduced
- TWEAK-induced p52 and RelB DNA binding activities (NF-κB2 [1]; renal nuclear protein extracts, paricalcitol 750 ng/kg/day, ELISA): inhibited
- CCL21 protein levels (NF-κB2 [1]; total kidney proteins, paricalcitol 750 ng/kg/day, western blot): reduced
- inflammatory cell infiltration ([2]; 5 days after UUO): prevented
- increased expression of proinflammatory factors, such as CCL2, CCL5, IL6 ([2]; real time PCR): prevented
- increased RelB levels and its nuclear localization (NF-κB2 [3]): prevented
- p100/p52 processing, and p52 nuclear translocation and DNA binding activity (NF-κB2 [3]): blocked
- increased expression of specific NF-κB2-regulated chemokines, including CCL21A and CCL19 (NF-κB2 [3]; real time PCR): prevented
